Assay results taken from patent US20230226092A1, “CANCER […] ON G[…]” (NuCana plc, priority 2015, published 2023).

Tested on: primary acute myeloid leukaemia (AML) blasts
Experiment: In vitro cytotoxicity assay (annexin V apoptosis) in primary acute myeloid leukemia cells
Assay type: cell-based, human
Settings: primary AML blasts, CD34+ cells, 48h, annexin V
Description: NUC-1031 was assayed for its cytotoxic effects on primary cultures of acute myeloid leukaemia (AML) blasts. LD50 values (the concentration required to kill 50% of the tumour cells in culture) were calculated in respect of NUC-1031 and gemcitabine.
Bone marrow samples were collected in ethylenediaminetetraacetic acid (EDTA) from newly diagnosed, previously untreated, acute myeloid leukemia (AML) patients. AML blasts were enriched by density gradient centrifugation using Histopaque (Sigma, Poole, UK) and were subsequently maintained in Roswell Park Memorial Institute medium (RPMI) supplemented with 10% foetal bovine serum (FBS). Cells were treated with Gemcitabine or NUC-1031 at concentrations between 0.25 µM and 10 µM, and incubated for 48h. All cultures were maintained at 37° C. in a 5% CO2 humidified atmosphere.
Cells were harvested and labelled with CD34-fluorescein isothiocyanate (FITC) (BD Biosciences, Buckingham, UK) and then resuspended in 200 µl of binding buffer containing 4µl of annexin V labelled with allophycocyanin (APC) (eBioscience Ltd, Hatfield, UK). Apoptosis was quantified in the CD34^+ AML cells using an Accuri C6 flow cytometer (Becton Dickinson, CA, USA). At least 10,000 events were acquired and data were subsequently analysed using FlowJo software (Tree Star Inc., Ashland, OR, USA). All LD50 values (concentration of drug required to kill 50% of cells) were derived from the dose-response curves.

Nc1ccn([C@@H]2O[C@H](CO)[C@@H](O)C2(F)F)c(=O)n1 [gemcitabine, reference compound]
mean LD50: 3.1 µM
